This is an account of results in publication PMC3348334 (Bioorganic & medicinal chemistry letters, 2012).

This experiment deals with COX. The experiment can be described thus: COX activity inhibition at single concentration. The experiment is classed as biochemical, human. Conditions: at 100 μM.

For the compound `O=C(O)c1cccc(Nc2ccc([N+](=O)[O-])c3ccccc23)c1` [Compound 2, 3-((4-nitronaphthalen-1-yl)amino)benzoic acid], the “inhibition of COX activity” value was “no significant inhibition”.
